The values below come from patent US20230079819A1, “COMPOUNDS AND USES THEREOF” (Foghorn Therapeutics Inc., priority 2019, published 2023).

For one test, the target named is T1, BRG-1 (Homo sapiens, UniProt P51532).
T1 construct: made in house; host or cells: High Five insect cells
As to the kind of experiment: ATPase catalytic activity of BRG-1, ADP-Glo in vitro biochemical assay. The note with it: ATPase catalytic activity, 30 nM BRG-1, 400 μM ATP, read-out: BRG1 IP50 (μM)*. Background: In ADP-Glo the light output rises with the ADP produced.

A further test has as its target T2, BRM (Homo sapiens, UniProt P51531).
T2 construct: made in house; host or cells: High Five insect cells
As to the kind of experiment: ATPase catalytic activity of BRM, ADP-Glo in vitro biochemical assay. As to conditions: ATPase catalytic activity, 30 nM BRM, 400 μM ATP, read-out: BRM IP50 (μM)*.

T2 sequence (P51531 whole entry): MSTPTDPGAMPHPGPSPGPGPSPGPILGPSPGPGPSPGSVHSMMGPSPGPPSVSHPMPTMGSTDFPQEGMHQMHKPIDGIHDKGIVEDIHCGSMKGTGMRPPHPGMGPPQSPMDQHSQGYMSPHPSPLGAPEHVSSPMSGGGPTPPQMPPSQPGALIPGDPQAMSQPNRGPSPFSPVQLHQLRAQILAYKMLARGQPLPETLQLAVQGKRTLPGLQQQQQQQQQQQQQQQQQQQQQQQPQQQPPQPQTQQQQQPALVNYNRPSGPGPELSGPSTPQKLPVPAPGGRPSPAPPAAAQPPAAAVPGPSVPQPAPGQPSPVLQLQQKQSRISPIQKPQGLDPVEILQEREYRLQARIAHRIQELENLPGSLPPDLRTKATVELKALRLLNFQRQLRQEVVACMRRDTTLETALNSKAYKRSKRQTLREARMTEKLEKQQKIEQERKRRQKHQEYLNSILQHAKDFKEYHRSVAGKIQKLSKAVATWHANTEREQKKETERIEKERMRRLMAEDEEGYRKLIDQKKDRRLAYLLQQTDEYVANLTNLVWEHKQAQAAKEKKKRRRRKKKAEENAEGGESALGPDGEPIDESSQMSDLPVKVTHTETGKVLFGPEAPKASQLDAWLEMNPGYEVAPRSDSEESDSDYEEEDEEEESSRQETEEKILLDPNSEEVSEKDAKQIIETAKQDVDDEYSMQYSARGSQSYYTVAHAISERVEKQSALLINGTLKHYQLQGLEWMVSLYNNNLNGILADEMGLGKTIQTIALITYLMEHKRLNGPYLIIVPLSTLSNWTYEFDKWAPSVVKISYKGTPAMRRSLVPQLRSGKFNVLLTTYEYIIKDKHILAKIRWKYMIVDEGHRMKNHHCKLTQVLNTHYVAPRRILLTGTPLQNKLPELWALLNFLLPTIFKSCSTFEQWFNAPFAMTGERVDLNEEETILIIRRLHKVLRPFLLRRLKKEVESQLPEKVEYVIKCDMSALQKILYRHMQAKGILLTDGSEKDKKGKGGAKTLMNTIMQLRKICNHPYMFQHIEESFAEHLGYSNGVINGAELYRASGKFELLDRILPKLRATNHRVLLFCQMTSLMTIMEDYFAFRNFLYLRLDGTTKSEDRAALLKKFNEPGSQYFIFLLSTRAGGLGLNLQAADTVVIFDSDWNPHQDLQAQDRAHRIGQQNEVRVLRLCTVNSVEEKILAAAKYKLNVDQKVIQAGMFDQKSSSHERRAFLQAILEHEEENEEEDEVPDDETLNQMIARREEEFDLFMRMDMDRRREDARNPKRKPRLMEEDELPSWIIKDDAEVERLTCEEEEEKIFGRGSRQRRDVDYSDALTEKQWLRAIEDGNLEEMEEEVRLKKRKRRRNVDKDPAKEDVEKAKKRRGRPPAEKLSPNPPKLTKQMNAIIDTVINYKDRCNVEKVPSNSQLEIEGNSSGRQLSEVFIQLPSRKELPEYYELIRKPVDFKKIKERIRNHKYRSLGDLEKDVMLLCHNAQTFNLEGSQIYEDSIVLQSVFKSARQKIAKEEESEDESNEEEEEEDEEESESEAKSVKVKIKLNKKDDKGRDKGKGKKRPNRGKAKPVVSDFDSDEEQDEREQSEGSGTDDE
T1 sequence (P51532 whole entry): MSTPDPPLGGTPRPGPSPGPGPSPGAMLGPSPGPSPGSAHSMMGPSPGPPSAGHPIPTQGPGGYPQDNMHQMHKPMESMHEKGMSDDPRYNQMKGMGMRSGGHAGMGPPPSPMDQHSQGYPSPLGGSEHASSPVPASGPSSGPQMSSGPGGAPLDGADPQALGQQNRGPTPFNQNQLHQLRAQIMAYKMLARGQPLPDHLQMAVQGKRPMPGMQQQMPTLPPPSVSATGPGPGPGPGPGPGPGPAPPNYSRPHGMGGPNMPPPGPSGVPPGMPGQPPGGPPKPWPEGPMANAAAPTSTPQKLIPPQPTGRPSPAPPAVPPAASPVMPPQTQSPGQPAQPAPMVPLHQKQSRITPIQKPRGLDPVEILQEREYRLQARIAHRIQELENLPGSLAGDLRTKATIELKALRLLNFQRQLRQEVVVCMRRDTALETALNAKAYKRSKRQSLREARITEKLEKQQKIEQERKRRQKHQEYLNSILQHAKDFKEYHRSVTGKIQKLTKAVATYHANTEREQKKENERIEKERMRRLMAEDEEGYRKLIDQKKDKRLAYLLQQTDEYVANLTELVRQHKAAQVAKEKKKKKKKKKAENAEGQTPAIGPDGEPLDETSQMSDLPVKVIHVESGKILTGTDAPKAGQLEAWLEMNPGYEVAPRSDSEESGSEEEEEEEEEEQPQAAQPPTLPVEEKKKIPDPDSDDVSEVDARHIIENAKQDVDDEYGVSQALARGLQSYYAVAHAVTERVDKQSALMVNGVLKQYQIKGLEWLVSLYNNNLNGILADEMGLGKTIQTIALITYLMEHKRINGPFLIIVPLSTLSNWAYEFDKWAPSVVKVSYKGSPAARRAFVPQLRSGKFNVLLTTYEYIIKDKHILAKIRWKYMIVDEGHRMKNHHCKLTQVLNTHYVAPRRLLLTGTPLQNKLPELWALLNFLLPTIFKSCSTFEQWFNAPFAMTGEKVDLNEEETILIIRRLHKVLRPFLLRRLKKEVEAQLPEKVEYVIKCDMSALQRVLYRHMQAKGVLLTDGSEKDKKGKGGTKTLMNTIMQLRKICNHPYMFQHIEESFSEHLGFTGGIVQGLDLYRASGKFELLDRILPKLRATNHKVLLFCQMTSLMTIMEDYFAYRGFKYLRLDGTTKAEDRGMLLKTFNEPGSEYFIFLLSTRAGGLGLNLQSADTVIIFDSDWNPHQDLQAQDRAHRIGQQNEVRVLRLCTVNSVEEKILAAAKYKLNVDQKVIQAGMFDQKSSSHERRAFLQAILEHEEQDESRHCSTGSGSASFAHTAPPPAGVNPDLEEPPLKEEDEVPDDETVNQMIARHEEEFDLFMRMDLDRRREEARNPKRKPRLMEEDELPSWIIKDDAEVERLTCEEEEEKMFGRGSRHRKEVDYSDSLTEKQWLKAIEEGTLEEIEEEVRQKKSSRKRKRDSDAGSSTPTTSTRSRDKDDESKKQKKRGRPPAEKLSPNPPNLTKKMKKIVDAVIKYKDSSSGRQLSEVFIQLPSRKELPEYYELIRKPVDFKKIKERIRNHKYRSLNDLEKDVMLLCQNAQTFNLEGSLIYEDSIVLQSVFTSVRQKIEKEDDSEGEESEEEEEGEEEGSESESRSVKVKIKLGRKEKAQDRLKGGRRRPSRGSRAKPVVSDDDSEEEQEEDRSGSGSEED

For the molecule `CC(Oc1ccccc1)c1cccc(-c2csc(NC(=O)CNC(=O)c3ccn(S(C)(=O)=O)c3)n2)c1` (stereo not drawn) [Compound 103, 1-(methylsulfonyl)-N-(2-oxo-2-((4-(3-(1-phenoxyethyl)phenyl)thiazol-2-yl)amino)ethyl)-1H-pyrrole-3-carboxamide], the IC50 at BRG-1 and on BRM was more than 0.1 µM each time.

For `CS(=O)(=O)n1ccc(C(=O)NCC(=O)Nc2nc(-c3cccc(COc4ccccc4)c3)cs2)c1` [Compound 104, 1-(methylsulfonyl)-N-(2-oxo-2-((4-(3-(phenoxymethyl)phenyl)thiazol-2-yl)amino)ethyl)-1H-pyrrole-3-carboxamide], the IC50 at BRG-1 and on BRM was more than 0.01 µM in each case.

As for `CS(=O)(=O)n1ccc(C(=O)NCC(=O)Nc2nc(-c3cccc(CO[C@H]4CC[C@H](O)CC4)c3)cs2)c1` [Compound 105, N-(2-((4-(3-((((1R,4R)-4-hydroxycyclohexyl)oxy)methyl)phenyl)thiazol-2-yl)amino)-2-oxoethyl)-1-(methylsulfonyl)-1H-pyrrole-3-carboxamide], the IC50 on BRG-1 was less than 0.01 µM; at BRM it was more than 0.01 µM.

Regarding `CS(=O)(=O)n1ccc(C(=O)NCC(=O)Nc2nc(-c3cccc(OCc4ccncc4)c3)cs2)c1` [Compound 106, 1-(methylsulfonyl)-N-(2-oxo-2-((4-(3-(pyridin-4-ylmethoxy)phenyl)thiazol-2-yl)amino)ethyl)-1H-pyrrole-3-carboxamide], the IC50 at BRG-1 and at BRM was less than 0.01 µM in each case.

With `CS(=O)(=O)n1ccc(C(=O)NCC(=O)Nc2nc(-c3cccc(COc4ccccn4)c3)cs2)c1` [Compound 107, 1-(methylsulfonyl)-N-(2-oxo-2-((4-(3-((pyridin-2-yloxy)methyl)phenyl)thiazol-2-yl)amino)ethyl)-1H-pyrrole-3-carboxamide], the IC50 on BRG-1 and at BRM was more than 0.01 µM throughout.

Regarding `CS(=O)(=O)n1ccc(C(=O)NCC(=O)Nc2nc(-c3cccc(COc4ccncc4)c3)cs2)c1` [Compound 108, 1-(methylsulfonyl)-N-(2-oxo-2-((4-(3-((pyridin-4-yloxy)methyl)phenyl)thiazol-2-yl)amino)ethyl)-1H-pyrrole-3-carboxamide], the IC50 was more than 0.01 µM at BRG-1 and less than 0.01 µM at BRM.

For the molecule `CN1Cc2ccc(-c3csc(NC(=O)CNC(=O)c4ccn(S(C)(=O)=O)c4)n3)cc2CC1=O` [Compound 109, N-(2-((4-(2-methyl-3-oxo-1,2,3,4-tetrahydroisoquinolin-6-yl)thiazol-2-yl)amino)-2-oxoethyl)-1-(methylsulfonyl)-1H-pyrrole-3-carboxamide], the IC50 on BRG-1 and on BRM was more than 0.01 µM each time.

For the molecule `CS(=O)(=O)n1ccc(C(=O)NCC(=O)Nc2nc(-c3cccc(OCC4COC4)c3)cs2)c1` [Compound 110, 1-(methylsulfonyl)-N-(2-((4-(3-(oxetan-3-ylmethoxy)phenyl)thiazol-2-yl)amino)-2-oxoethyl)-1H-pyrrole-3-carboxamide], the IC50 at BRG-1 and at BRM was more than 0.01 µM in each case.

With `CS(=O)(=O)n1ccc(C(=O)NCC(=O)Nc2nc(C3CCCN(c4ccncc4)C3)cs2)c1` (stereo not drawn) [Compound 111], the IC50 on BRG-1 and at BRM was more than 0.1 µM each time.

Turning to `Cn1ccc2ccc(-c3csc(NC(=O)CNC(=O)c4ccn(S(C)(=O)=O)c4)n3)cc2c1=O` [Compound 112, N-(2-((4-(2-methyl-1-oxo-1,2-dihydroisoquinolin-7-yl)thiazol-2-yl)amino)-2-oxoethyl)-1-(methylsulfonyl)-1H-pyrrole-3-carboxamide], the IC50 on BRG-1 and at BRM was less than 0.01 µM in each case.

Regarding `CS(=O)(=O)n1ccc(C(=O)NCC(=O)Nc2nc(-c3ccn(-c4ccncc4)n3)cs2)c1` [Compound 113, 1-(methylsulfonyl)-N-(2-oxo-2-((4-(1-(pyridin-4-yl)-1H-pyrazol-3-yl)thiazol-2-yl)amino)ethyl)-1H-pyrrole-3-carboxamide], the IC50 at BRG-1 and on BRM was more than 0.1 µM throughout.

Regarding `CS(=O)(=O)n1ccc(C(=O)NCC(=O)Nc2nc(-c3cccc(C4CCN(CC(F)(F)F)CC4)c3)cs2)c1` [Compound 114, 1-(methylsulfonyl)-N-(2-oxo-2-((4-(3-(1-(2,2,2-trifluoroethyl)piperidin-4-yl)phenyl)thiazol-2-yl)amino)ethyl)-1H-pyrrole-3-carboxamide], the IC50 on BRG-1 and on BRM was more than 0.1 µM each time.

Take `Cc1nccn1-c1cccc(-c2csc(NC(=O)CNC(=O)c3ccn(S(C)(=O)=O)c3)n2)c1` [Compound 115, N-(2-((4-(3-(2-methyl-1H-imidazol-1-yl)phenyl)thiazol-2-yl)amino)-2-oxoethyl)-1-(methylsulfonyl)-1H-pyrrole-3-carboxamide]: the IC50 on BRG-1 and on BRM was more than 0.1 µM each time.

For `CN(C(=O)c1cccc(-c2csc(NC(=O)CNC(=O)c3ccn(S(C)(=O)=O)c3)n2)c1)c1ccccc1` [Compound 116, N-(2-((4-(3-(methyl(phenyl)carbamoyl)phenyl)thiazol-2-yl)amino)-2-oxoethyl)-1-(methylsulfonyl)-1H-pyrrole-3-carboxamide], the IC50 on BRG-1 and at BRM was more than 1 µM in each case.

For `CS(=O)(=O)n1ccc(C(=O)NCC(=O)Nc2nc(-c3cccc(C(=O)Nc4ccncc4)c3)cs2)c1` [Compound 117, 1-(methylsulfonyl)-N-(2-oxo-2-((4-(3-(pyridin-4-ylcarbamoyl)phenyl)thiazol-2-yl)amino)ethyl)-1H-pyrrole-3-carboxamide], the IC50 at BRG-1 and on BRM was more than 0.01 µM in each case.

Turning to `CN1CC(OCc2cccc(-c3csc(NC(=O)CNC(=O)c4ccn(C(C)(C)C)c4)n3)c2)C1` [Compound 118, 1-(tert-butyl)-N-(2-((4-(3-(((1-methylazetidin-3-yl)oxy)methyl)phenyl)thiazol-2-yl)amino)-2-oxoethyl)-1H-pyrrole-3-carboxamide], the IC50 at BRG-1 and on BRM was more than 1 µM in each case.

Consider `Cn1ccc(OCc2cccc(-c3csc(NC(=O)CNC(=O)c4ccn(C(C)(C)C)c4)n3)c2)n1` [Compound 119, 1-(tert-butyl)-N-(2-((4-(3-(((1-methyl-1H-pyrazol-3-yl)oxy)methyl)phenyl)thiazol-2-yl)amino)-2-oxoethyl)-1H-pyrrole-3-carboxamide], for which the values for the IC50 at BRG-1 and on BRM were more than 0.1 µM and more than 0.01 µM, respectively.

For `COc1cccc(-c2csc(NC(=O)CNC(=O)c3ccn(C(C)(C)C)c3)n2)c1` [Compound 120, 1-(tert-butyl)-N-(2-((4-(3-methoxyphenyl)thiazol-2-yl)amino)-2-oxoethyl)-1H-pyrrole-3-carboxamide], the results for the IC50 on BRG-1 and on BRM were more than 0.1 µM and more than 0.01 µM, respectively.

Turning to `COc1cccc(-c2csc(NC(=O)CNC(=O)c3ccn(S(C)(=O)=O)c3)n2)c1` [Compound 121, N-(2-((4-(3-methoxyphenyl)thiazol-2-yl)amino)-2-oxoethyl)-1-(methylsulfonyl)-1H-pyrrole-3-carboxamide], the IC50 at BRG-1 and at BRM was more than 0.01 µM throughout.

In the case of `CC(C)(C)n1ccc(C(=O)NCC(=O)Nc2nc(-c3cccc(OCC4COC4)c3)cs2)c1` [Compound 122, 1-(tert-butyl)-N-(2-((4-(3-(oxetan-3-ylmethoxy)phenyl)thiazol-2-yl)amino)-2-oxoethyl)-1H-pyrrole-3-carboxamide], the IC50 at BRG-1 and at BRM was more than 0.01 µM in each case.

With `Cn1ccc2ccc(-c3csc(NC(=O)CNC(=O)c4ccn(C(C)(C)C)c4)n3)cc2c1=O` [Compound 123, 1-(tert-butyl)-N-(2-((4-(2-methyl-1-oxo-1,2-dihydroisoquinolin-7-yl)thiazol-2-yl)amino)-2-oxoethyl)-1H-pyrrole-3-carboxamide], the IC50 on BRG-1 is more than 0.01 µM; at BRM it was less than 0.01 µM.

Turning to `CN1Cc2ccc(-c3csc(NC(=O)CNC(=O)c4ccn(C(C)(C)C)c4)n3)cc2CC1=O` [Compound 124, 1-(tert-butyl)-N-(2-((4-(2-methyl-3-oxo-1,2,3,4-tetrahydroisoquinolin-6-yl)thiazol-2-yl)amino)-2-oxoethyl)-1H-pyrrole-3-carboxamide], the IC50 at BRG-1 is more than 0.1 µM; at BRM it was more than 0.01 µM.

Turning to `CC(C)(C)n1ccc(C(=O)NCC(=O)Nc2nc(-c3cccc(COC4CCOCC4)c3)cs2)c1` [Compound 125, 1-(tert-butyl)-N-(2-oxo-2-((4-(3-(((tetrahydro-2H-pyran-4-yl)oxy)methyl)phenyl)thiazol-2-yl)amino)ethyl)-1H-pyrrole-3-carboxamide], the IC50 on BRG-1 and on BRM was more than 0.01 µM throughout.

In the case of `CC(OC1CCOCC1)c1cccc(-c2csc(NC(=O)CNC(=O)c3ccn(C(C)(C)C)c3)n2)c1` (stereo not drawn) [Compound 126, 1-(tert-butyl)-N-(2-oxo-2-((4-(3-(1-((tetrahydro-2H-pyran-4-yl)oxy)ethyl)phenyl)thiazol-2-yl)amino)ethyl)-1H-pyrrole-3-carboxamide], the IC50 was more than 0.1 µM at BRG-1 and more than 0.01 µM at BRM.

For `CN1CCC(OCc2cccc(-c3csc(NC(=O)CNC(=O)c4ccn(C(C)(C)C)c4)n3)c2)CC1` [Compound 127, 1-(tert-butyl)-N-(2-((4-(3-(((1-methylpiperidin-4-yl)oxy)methyl)phenyl)thiazol-2-yl)amino)-2-oxoethyl)-1H-pyrrole-3-carboxamide], the IC50 at BRG-1 and at BRM was more than 0.1 µM throughout.

As to `CN1CCC(OCc2cccc(-c3csc(NC(=O)CNC(=O)c4ccn(C(C)(C)C)c4)n3)c2)C(F)(F)C1` (stereo not drawn) [Compound 128, 1-(tert-butyl)-N-(2-((4-(3-(((3,3-difluoro-1-methylpiperidin-4-yl)oxy)methyl)phenyl)thiazol-2-yl)amino)-2-oxoethyl)-1H-pyrrole-3-carboxamide], the IC50 at BRG-1 and on BRM was more than 0.1 µM each time.

In the case of `CC(C)(C)n1ccc(C(=O)NCC(=O)Nc2nc(-c3cccc(COC4CCOC4)c3)cs2)c1` (stereo not drawn) [Compound 129, 1-(tert-butyl)-N-(2-oxo-2-((4-(3-(((tetrahydrofuran-3-yl)oxy)methyl)phenyl)thiazol-2-yl)amino)ethyl)-1H-pyrrole-3-carboxamide], the IC50 at BRG-1 and at BRM was more than 0.01 µM in each case.
